A short description of test [1]: UVA-induced squalene oxidation in vitro model, MDA formed measured by fluorometric TBARS assay. It is filed as biochemical. The following applies: 20 J/cm^2 UVA; for Efficacy (percentage difference in MDA generation compared to the untreated, UV-stimulated control sample): 0.12 nM protoporphyrin IX, negative = reduction. As for the experimental part: The antioxidant test model described above was used to test efficacy of various antioxidants in reducing the oxidation of squalene in conditions reflecting approximately two (2) hours of intense sun exposure. The target Oxidizable Component was squalene, in an amount of 30 μL (9.7% w/w) per sample. The solvents selected were dimethyl sulfoxide, propylene glycol (PG), and 1-butanol, in amounts of 8.3% (v/v), 8.3% (v/v), and 83.5% (v/v) per sample, respectively. The tests further included a biological metabolite, specifically protoporphyrin IX, in an amount of 0.12 nM per sample. The exposure to UVA radiation, using a solar simulator (NewportR), Oriel Instruments U.S.A., model 91293-1000), was 20 J/cm^2, as measured by a calibrated UVA detector probe (Solar Light Company, Inc., model PMA2110-UVS) connected to a calibrated simulator controller (Solar Light Company, Inc., model DCS-2).
To prepare the antioxidant test solutions, the antioxidants were first dissolved (via vortexing and gentle heating if necessary) in a volume of dimethyl sulfoxide (DMSO) that achieved a target concentration for the predetermined use level as outlined in Table 1.
The antioxidant test solutions were then diluted by 50% with propylene glycol (PG). […] The bulk volume was vortexed immediately prior to pipetting 5 replicates of 300 μL samples into the wells of a 24-well plate. The plates were then exposed to the UVA radiation until the target UVA dose was achieved (20 J/cm^2), after which the plate was removed and the amount of MDA formed by lipid peroxidation was analyzed. Care was taken during the experiment to protect the samples from extraneous light oxidation throughout the solution preparation, sample plating, and after the UVA exposure prior to MDA quantitation.
The determination of the amount of MDA formed was performed by fluorometric analysis using a commercial TBARS assay kit (Sigma Aldrich, catalogue #MAK085) that reacts thiobarbituric acid with the MDA present in the sample to form a fluorometric product (λex=532/λem=553 nm), which can be easily quantitated with a monochromator-based microplate reader (Tecan Infinite M1000 Pro) and the accompanying software (Tecan i-control). […] The magnitude of efficacy for each sample, expressed as percentage reduction from the untreated control, was averaged for each antioxidant treatment.
In Table 2 below, “X” means that there was no significant reduction (p<0.05) in the MDA formation as compared to the UV-stimulated control. The % of concentration of the active in the formula tested is identified as “% conc”.

For test [2] the following is noted: 1% in oil-in-water emulsion, topical twice daily 2 mg/cm^2 for 7 days on the back, human subjects, 10 J/cm^2 UVA; significant (p<0.05); cited from earlier work.
Setting [3] is: 0.05% conc of active in formula.

The structures appear in SMILES notation.

For `O=c1cc(-c2ccc(O)cc2)oc2cc(O)cc(O)c12` [Apigenin], in test [1] (0.5% conc of active in formula), the “Efficacy (percentage difference in MDA generation compared to the untreated, UV-stimulated control sample)” value is −35%. With `NC(=O)c1cccnc1` [Niacinamide], the “Efficacy (percentage difference in MDA generation compared to the untreated, UV-stimulated control sample)” value in test [1] (0.5% conc of active in formula) is on record as 58%. `COc1cc(/C=C/C(=O)O)ccc1O` [Ferulic acid]: the “Efficacy (percentage difference in MDA generation compared to the untreated, UV-stimulated control sample)” value in test [1] (0.01% conc of active in formula) was −47%; in test [1] (setting [3]), −41%; in test [1] (0.1% conc of active in formula), −39%. As for `O=C(O)/C=C/c1ccc(O)cc1` [p-coumeric acid], the “Efficacy (percentage difference in MDA generation compared to the untreated, UV-stimulated control sample)” value was −48% in test [1] (setting [3]) and −55% in test [1] (0.1% conc of active in formula). For `O=C(O)C(O)c1ccccc1` (centres unmarked) [Mandelic acid], the “Efficacy (percentage difference in MDA generation compared to the untreated, UV-stimulated control sample)” value in test [1] (2% conc of active in formula) amounted to 81%; in test [1] (3% conc of active in formula), 69%. As to `Cc1cc(C(C)(C)C)c(O)c(C(C)(C)C)c1` [Butylated hydroxytoluene (BHT), Butylated hydroxytoluene], in test [1] (0.035% conc of active in formula), the “Efficacy (percentage difference in MDA generation compared to the untreated, UV-stimulated control sample)” value is on record as −54%.

`CC(C)(CO)[C@H](O)C(=O)NCCCO` [D-Panthenol (Provitamin B5), D-Panthenol]: the figures for the “Efficacy (percentage difference in MDA generation compared to the untreated, UV-stimulated control sample)” value in test [1] (0.25% conc of active in formula) and in test [1] (0.5% conc of active in formula) were −21% and −18%, respectively. Take `CC(=O)Oc1c(C)c(C)c2c(c1C)CCC(C)(CCC[C@H](C)CCC[C@H](C)CCCC(C)C)O2` (some centres unmarked) [Vitamin E acetate]: in test [1] (0.1% conc of active in formula), the “Efficacy (percentage difference in MDA generation compared to the untreated, UV-stimulated control sample)” value is recorded as −36%.

As to `O=C1O[C@H]([C@@H](O)CO)C([O-])=C1OP(=O)([O-])[O-].[Na+].[Na+].[Na+]` [sodium ascorbyl phosphate], the “reduction of UVA-induced squalene oxidation compared to a placebo formulation” value in test [2] is 30%. In addition, the “Efficacy (percentage difference in MDA generation compared to the untreated, UV-stimulated control sample)” value in test [1] (1% conc of active in formula) is reported as −41%. Moreover, in test [1] (1%, in vitro model), the “reduction of UV-induced squalene oxidation as compared to the control sample” value is reported as 41%. On to `Cc1c(C)c2c(c(C)c1O)CC[C@@](C)(CCC[C@H](C)CCC[C@H](C)CCCC(C)C)O2` [Vitamin E (alpha-tocopherol), alpha-tocopherol], for which the “Efficacy (percentage difference in MDA generation compared to the untreated, UV-stimulated control sample)” value in test [1] (0.1% conc of active in formula) is −61%; in test [1] (0.5% conc of active in formula), −78%; in test [1] (1% conc of active in formula) it was −81%. Take `O=C(O)CO` [Glycolic acid]: the “Efficacy (percentage difference in MDA generation compared to the untreated, UV-stimulated control sample)” value in test [1] (3% conc of active in formula) is −25%.

Source of the values: patent US20240345054A1, “Method of Screening Antioxidants” (Johnson & Johnson Consumer Inc., priority 2021, published 2024).
